Experimental data as given in patent US7776862B2, “Pyridyl and phenyl substituted piperazine-piperidines with CXCR3 antagonist activity” (Schering Corporation, priority 2005, dated 2010).
pIC50: −log10 of the molar value.

target: T1, human CXCR3 (N-delta 4) (Homo sapiens, UniProt P49682); experiment: Human CXCR3 (N-delta 4) scintillation proximity assay (SPA), [125I] IP-10 binding; details: IC50 rating; Ba/F3-hCXCR3 (N-delta 4) membranes, 25 pM [125I] IP-10
T1 construct: CD8 leader; Flag tag; expressed in transfected cells; membranes used
T1 sequence (P49682 5-368 limits assumed): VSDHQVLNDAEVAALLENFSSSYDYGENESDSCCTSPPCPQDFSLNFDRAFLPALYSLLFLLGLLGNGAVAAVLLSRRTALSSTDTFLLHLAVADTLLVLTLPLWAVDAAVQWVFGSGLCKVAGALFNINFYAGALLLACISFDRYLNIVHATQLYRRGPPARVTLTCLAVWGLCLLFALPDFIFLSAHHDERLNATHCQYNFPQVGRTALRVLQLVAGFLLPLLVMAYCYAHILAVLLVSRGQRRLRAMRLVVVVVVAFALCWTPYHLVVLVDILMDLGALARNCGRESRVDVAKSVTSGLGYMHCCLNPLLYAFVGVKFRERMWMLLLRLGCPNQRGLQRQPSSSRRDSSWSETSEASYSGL
Outline: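 Membranes from mouse Ba/F3 pro-B cells stably expressing Flag-tagged human CXCR3 (N-delta 4) were coupled to SPA beads. IP-10 was added together with titrated compounds to start the reaction, and bound radioligand was read by scintillation proximity.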

SMILES | pIC50
O=C(NCc1ccc(F)c(F)c1)c1cnc(N2CCN(C3CCN(Cc4ccc([N+](=O)[O-])cc4)CC3)CC2)c(Br)c1 [compound 164] | > 7.60
O=C(NCCOc1ccccc1)c1cnc(N2CCN(C3CCN(Cc4ccc(-c5ccccc5)cc4)CC3)CC2)c(Cl)c1 [compound 165] | < 7.00
O=C(NCCOc1ccccc1)c1cnc(N2CCN(C3CCN(Cc4ccc(OC(F)(F)F)cc4)CC3)CC2)c(Cl)c1 [compound 169] | < 7.00
O=C(NCc1ccc(F)c(F)c1)c1cnc(N2CC3CC2CN3C2CCN(Cc3ccc(Cl)cc3)CC2)c(Cl)c1 (centres unmarked) [compound 170] | < 7.00
CC(c1ccc(C#N)cc1)N1CCC(N2CCN(c3ncc(C(=O)NCc4ccc(F)c(F)c4)cc3Cl)CC2)CC1 (centres unmarked) [compound 172] | < 7.00
C[C@@H]1CN(C2CCN(Cc3ccc(C#N)cc3)CC2)CCN1c1ncc(C(=O)NCc2ccc(Cl)c(Cl)c2)cc1Cl [compound 173] | < 7.00
C[C@@H]1CN(C2CCN(Cc3ccc([N+](=O)[O-])cc3)CC2)CCN1c1ncc(C(=O)NCc2ccc(Cl)c(Cl)c2)cc1Cl [compound 174] | 7.00 to 7.60
C[C@H]1CN(C2CCN(Cc3ccc(Cl)cc3)CC2)CCN1c1ncc(C(=O)NCc2ccc(Cl)c(Cl)c2)cc1Cl [compound 175] | 7.00 to 7.60
O=C(NCC1COc2ccccc2O1)c1cnc(N2CCN(C3CCN(Cc4ccc(Cl)cc4)CC3)CC2)c(Br)c1 (centres unmarked) [compound 176] | < 7.00
O=C(NCC(c1ccccc1)c1ccccc1)c1cnc(N2CCN(C3CCN(Cc4ccc(Cl)cc4)CC3)CC2)c(Br)c1 [compound 178] | < 7.00
O=C(NCc1ccc(F)c(F)c1)c1cnc(N2CCN(C3CCN(Cc4ccc(Cl)cc4)CC3)CC2)c(I)c1 [compound 182] | > 7.60
CC1CN(c2ncc(C(=O)NCc3ccc(Cl)c(Cl)c3)cc2Cl)CCN1C1CCN(Cc2ccc(Cl)cc2)CC1 (centres unmarked) [compound 185] | > 7.60
CC1CN(c2ncc(C(=O)NCc3ccc(Cl)c(Cl)c3)cc2Cl)CCN1C1CCN(Cc2ccc([N+](=O)[O-])cc2)CC1 (centres unmarked) [compound 186] | > 7.60
CC1CN(c2ncc(C(=O)NCc3ccc(F)c(F)c3)cc2Cl)CCN1C1CCN(Cc2ccc([N+](=O)[O-])cc2)CC1 (centres unmarked) [compound 187] | > 7.60
CC1CN(c2ncc(C(=O)NCc3ccc(F)c(F)c3)cc2Cl)CCN1C1CCN(Cc2ccc(Cl)cc2)CC1 (centres unmarked) [compound 188] | 7.00 to 7.60
N#Cc1ccc(C(=O)N2CCC(N3CCN(c4ncc(C(=O)NCC5CCCCC5)cc4Br)CC3)CC2)cc1 [compound 193] | 7.00 to 7.60
COCCNC(=O)c1cnc(N2CCN(C3CCN(Cc4ccc(Cl)cc4)CC3)[C@@H](CC(C)C)C2)c(Cl)c1 [compound 195] | < 7.00

SMILES | pIC50
CC(C)C[C@H]1CN(c2ncc(C(=O)NCc3ccc(F)c(F)c3)cc2Cl)CCN1C1CCN(Cc2ccc(Cl)cc2)CC1 [compound 199] | < 7.00
C[C@H]1CN(c2ccc(C(=O)NCc3ccc(F)c(F)c3)cc2Cl)CCN1C1(C)CCN(Cc2ccc(Cl)cc2)CC1 [compound 204] | 7.00 to 7.60
CNC(=O)c1cnc(N2CCN(C3(C)CCN(Cc4ccc(Cl)cc4)CC3)[C@@H](C)C2)c(Cl)c1 [compound 205] | < 7.00
CC1(N2CCN(c3ncc(C(=O)NCc4ccc(Cl)c(Cl)c4)cc3Cl)CC2)CCN(Cc2ccc(Cl)cc2)CC1 [compound 206] | 7.00 to 7.60
CC1(N2CCN(c3ncc(C(=O)NCc4ccc(F)c(F)c4)cc3Cl)CC2)CCN(Cc2ccc(Cl)cc2)CC1 [compound 207] | < 7.00
CCNC(=O)c1cnc(N2CCN(C3(CC)CCN(Cc4ccc(Cl)cc4)CC3)CC2)c(Cl)c1 [compound 208] | < 7.00
CCNC(=O)c1cnc(N2CCN(C3CCN(Cc4ccc(Cl)cc4)CC3C)[C@@H](C)C2)c(Cl)c1 (some centres unmarked) [compound 209] | > 7.60
CCNC(=O)c1cnc(N2CCN(C3CCN(C(=O)c4ccc(Cl)cc4)CC3)[C@@H](C(C)C)C2)c(Cl)c1 [compound 211] | < 7.00
CCNC(=O)c1cnc(N2CCN(C3CCN(Cc4ccc(Cl)cc4F)CC3)[C@@H](CC)C2)c(Cl)c1 [compound 212] | > 7.60
CCNC(=O)c1cnc(N2C[C@H](CC)N(C3CCN(Cc4ccc(Cl)cc4)CC3)C[C@H]2C)c(Cl)c1 [compound 214] | > 7.60
CCNC(=O)c1cnc(N2C[C@H](CC)N(C3CCN(Cc4ccc(Cl)cc4F)CC3)C[C@H]2C)c(Cl)c1 [compound 217] | > 7.60
CCNC(=O)c1cnc(N2CCN(C3CCN(Cc4ccc(I)cc4)CC3)[C@@H](CC)C2)c(Cl)c1 [compound 218] | > 7.60
CC[C@H]1CN(c2ncc(C(=O)NC)cc2Cl)CCN1C1CCN(Cc2ccc(Br)cc2F)CC1 [compound 219] | > 7.60
CCNC(=O)c1cnc(N2CCN(C3CCN(Cc4ccc(Cl)cc4)C(C)C3)[C@@H](CC)C2)c(Cl)c1 (some centres unmarked) [compound 220] | > 7.60
CC[C@H]1CN(c2ncc(C(=O)NCc3ccc(F)c(F)c3)cc2Cl)CCN1C1CCN(Cc2ccc(Cl)cc2)CC1 [compound 221] | > 7.60
C[C@H]1CN(c2ncc(C(=O)NCc3ccc(F)c(F)c3)cc2Br)CCN1C1CCN(Cc2ccc(Cl)cc2)CC1 [compound 222] | > 7.60
CC[C@H]1CN(c2ncc(C(=O)NC)cc2Cl)CCN1C1CCN(Cc2ccc(Cl)cc2F)CC1 [compound 224] | > 7.60

Continued, values first:

pIC50 | SMILES
7.00 to 7.60 | O=C(NCc1ccc(Cl)cc1)c1cnc(N2CCN(C3CCN(Cc4ccc(Cl)c(F)c4)CC3)CC2)c(Cl)c1 [compound 161]
> 7.60 | O=C(NCc1ccc(Cl)c(Cl)c1)c1cnc(N2CCN(C3CCN(Cc4ccc([N+](=O)[O-])cc4)CC3)CC2)c(Cl)c1 [compound 162]
> 7.60 | CCNC(=O)c1cnc(N2CCN(C3CCN(Cc4ccc(Cl)cc4)CC3(C)C)CC2)c(Cl)c1 (centres unmarked) [compound 163]
< 7.00 | O=C(NCc1ccccc1Cl)c1cnc(N2CCN(C3CCN(Cc4ccc(Cl)cc4)CC3)CC2)c(Cl)c1 [compound 166]
< 7.00 | O=C(NCC1CC1)c1cnc(N2CCN(C3CCN(Cc4ccc(Cl)cc4)CC3)CC2)c(Cl)c1 [compound 167]
< 7.00 | O=C(NC1CCCC1)c1cnc(N2CCN(C3CCN(Cc4ccc(Cl)cc4)CC3)CC2)c(Cl)c1 [compound 168]
7.00 to 7.60 | CC(NC(=O)c1cnc(N2CCN(C3CCN(Cc4ccc(Cl)cc4)CC3)CC2)c(Cl)c1)c1ccc(Cl)cc1 (centres unmarked) [compound 171]
< 7.00 | CCCCNC(=O)c1cnc(N2CCN(C3CCN(Cc4ccc(Cl)cc4)CC3)CC2)c(Cl)c1 [compound 177]
< 7.00 | CC1(C)C2CCC(CNC(=O)c3cnc(N4CCN(C5CCN(Cc6ccc(Cl)cc6)CC5)CC4)c(Br)c3)C1C2 (centres unmarked) [compound 179]
< 7.00 | CC(C)NC(=O)c1cnc(N2CCN(C3CCN(Cc4ccc(Cl)cc4)CC3)CC2)c(Cl)c1 [compound 180]
< 7.00 | CC(C)CNC(=O)c1cnc(N2CCN(C3CCN(Cc4ccc(Cl)cc4)CC3)CC2)c(Cl)c1 [compound 181]
< 7.00 | Cc1ccc(CN2CCC(N3CCN(c4ncc(C(=O)NCc5ccc(Cl)c(Cl)c5)cc4Cl)CC3)CC2)cc1 [compound 183]
7.00 to 7.60 | O=C(NCC1CCCCC1)c1cnc(N2CCN(C3CCN(Cc4ccc(Cl)cc4)CC3)CC2)c(Cl)c1 [compound 184]
< 7.00 | O=C(NC1CCCC1)c1cnc(N2CCN(C3CCN(Cc4ccc(Cl)cc4)CC3)CC2)c(Br)c1 [compound 189]
< 7.00 | N#Cc1ccc(CN2CCC(N3CCN(c4ncc(C(=O)NC5CCCC5)cc4Cl)CC3)CC2)cc1 [compound 190]
< 7.00 | O=C(NC1CCCCC1)c1cnc(N2CCN(C3CCN(Cc4ccc(Cl)cc4)CC3)CC2)c(Cl)c1 [compound 191]
< 7.00 | CCCNC(=O)c1cnc(N2CCN(C3CCN(Cc4ccc(Cl)cc4)CC3)CC2)c(Cl)c1 [compound 192]
7.00 to 7.60 | O=C(NCC1CCCCC1)c1cnc(N2CCN(C3CCN(Cc4ccc(Cl)cc4)CC3)CC2)c(Br)c1 [compound 194]
< 7.00 | CC(C)C[C@H]1CN(c2ncc(C(=O)NC(C)C)cc2Cl)CCN1C1CCN(Cc2ccc(Cl)cc2)CC1 [compound 196]
7.00 to 7.60 | CC(C)C[C@H]1CN(c2ncc(C(=O)NCC3CCCCC3)cc2Cl)CCN1C1CCN(Cc2ccc(Cl)cc2)CC1 [compound 197]
< 7.00 | CNC(=O)c1cnc(N2CCN(C3CCN(Cc4ccc(Cl)cc4)CC3)[C@@H](CC(C)C)C2)c(Cl)c1 [compound 198]
< 7.00 | Cc1cc(C(=O)NCc2ccc(F)c(F)c2)cnc1N1CCN(C2CCN(Cc3ccc(Cl)cc3)CC2)CC1 [compound 200]
< 7.00 | Cc1cc(C(=O)NCc2ccc(Cl)c(Cl)c2)cnc1N1CCN(C2CCN(Cc3ccc(Cl)cc3)CC2)CC1 [compound 201]
7.00 to 7.60 | CC1(N2CCN(c3ncc(C(=O)NCC4CCCCC4)cc3Cl)CC2)CCN(Cc2ccc(Cl)cc2)CC1 [compound 202]
< 7.00 | Cc1cc(C(=O)NCC2CCCCC2)cnc1N1CCN(C2CCN(Cc3ccc(Cl)cc3)CC2)CC1 [compound 203]
> 7.60 | CCNC(=O)c1cnc(N2CCN(C3CCN(Cc4ccc(Cl)cc4)CC3)[C@@H](C(C)C)C2)c(Cl)c1 [compound 210]
> 7.60 | CCNC(=O)c1cnc(N2CCN(C3CCN(Cc4ccc(Cl)cc4)CC3)[C@@H](CC)C2)c(Cl)c1 [compound 213]
> 7.60 | CC[C@H]1CN(c2ncc(C(=O)NC3CC3)cc2Cl)CCN1C1CCN(Cc2ccc(Cl)cc2F)CC1 [compound 215]
> 7.60 | CC[C@H]1CN(c2ncc(C(=O)NC(C)C)cc2Cl)CCN1C1CCN(Cc2ccc(Cl)cc2)CC1 [compound 216]
> 7.60 | CC[C@H]1CN(c2ncc(C(=O)NC)cc2Cl)CCN1C1CCN(Cc2ccc(Cl)cc2)CC1 [compound 223]

same assay, conditions: value given in text as example

pIC50 | SMILES
9.70 | CCNC(=O)c1cnc(N2CCN(C3CCN(Cc4ccc(Cl)cc4F)CC3)[C@@H](CC)C2)c(Cl)c1 [compound 212]
